The source of these data is patent publication US9221838B2, “Inhibitors of AKT activity” (ALMAC DISCOVERY LIMITED, priority 2009, dated 2015).

What all share (type): biochemical
Test [1] addresses T1, AKT1 (Homo sapiens, UniProt P31749).
T1 construct: purchased SignalChem
Description: AKT Kinase Assay (IMAP fluorescent polarisation) vs AKT1. The method, then: (§1) Testing of the compounds was performed using an AKT Kinase Assay:
(§2) Activated AKT isoforms 1, 2 and 3 were assayed utilising a 5′ FAM Crosstide (Seq. GRPRTSSFAEG-OH)(SEO ID NO: 1). The extent of kinase phosphorylation was determined by fluorescent polarisation using IMAP progressive binding reagent, which introduces binding beads which allow the reagent to specifically bind to phosphate residues via covalent co-ordination complex bonds.
(§3) iMAP binding solution stops Crosstide/kinase interaction and specifically binds phosphorylated substrates. The degree of phosphorylation is determined by fluorescent polarisation (excitation 485 nm; emission 528 nm) or the reduction in speed of rotation of the excited substrate.
(§4) The following materials were used in the assay: • a) Activated AKT isoforms (SignalChem.) dissolved in Complete Reaction buffer at a pre-determined concentration selected so that the assay was carried out in the linear range. • b) AKT substrate peptide: FAM Crosstide (R7110) Molecular Devices, diluted in complete reaction buffer. • c) iMAP Progressive Screening Express Kit (R8127) Molecular Devices • d) Complete Reaction Buffer containing 0.1% BSA, 10 mM Tris-HCl, 10 mM MgCl2, 0.05% NaN3 and 0.01% phosphate free BSA, 1 mM DTT • e) Progressive Binding Solution containing 75% Buffer A, 25% Buffer B and low volume Binding Reagent which contains the binding entity for the assay • f) ATP diluted in complete reaction buffer • g) Black polystyrene 384 well assay plates (Nunc). • h) Biotek Synergy 4 Hybrid Plate reader.
(§5) 5 μl of test compound was dissolved in DMSO (Sigma Aldrich) and serially diluted in complete reaction buffer to give a fourteen point half log dose response and plated into 384 well black plates. The compound was incubated at room temperature with activated AKT isoform ([…] ) at the pre-determined concentration, for 45 minutes.
(§6) 2.5 μl of ATP solution mixed with 2.5 μl of AKT substrate peptide (FAM Crosstide (R7110) Molecular Devices) were dispensed into each well and the plate centrifuged at 1000 rpm for 20 seconds to ensure homogenous mixing of reagents. The reaction mix was incubated in the dark for one hour at room temperature.
(§7) The kinase reaction was stopped by the addition of Progressive Binding Solution and the mixture allowed to equilibrate for one hour in the dark, at room temperature.
(§8) The fluorescent polarisation generated in each well was determined using a […] Synergy 4 Hybrid plate reader. In brief, each reaction solution was excited at 485 nm with the emission measured at 528 nm in both the parallel and perpendicular pathway.
(§9) The polarisation value generated in each well was calculated by Gen5 software (Biotek) and the % inhibition of kinase activity compared to vehicle control was calculated via GraphPad Prism. IC50 values for each compound were calculated by non-linear regression analysis using Prism software.
(§10) All plates were internally controlled by two methods. Firstly, by calculating the signal:noise ratio; based on kinase polarisation without inhibitor and polarisation generated by complete reaction buffer in the absence of activated kinase. Secondly by determining IC50 values generated by known inhibitors of the AKT isoforms.

The target of test [2] is T2, AKT2 (Homo sapiens, UniProt P31751).
T2 construct: purchased SignalChem
T2 sequence (P31751 whole entry): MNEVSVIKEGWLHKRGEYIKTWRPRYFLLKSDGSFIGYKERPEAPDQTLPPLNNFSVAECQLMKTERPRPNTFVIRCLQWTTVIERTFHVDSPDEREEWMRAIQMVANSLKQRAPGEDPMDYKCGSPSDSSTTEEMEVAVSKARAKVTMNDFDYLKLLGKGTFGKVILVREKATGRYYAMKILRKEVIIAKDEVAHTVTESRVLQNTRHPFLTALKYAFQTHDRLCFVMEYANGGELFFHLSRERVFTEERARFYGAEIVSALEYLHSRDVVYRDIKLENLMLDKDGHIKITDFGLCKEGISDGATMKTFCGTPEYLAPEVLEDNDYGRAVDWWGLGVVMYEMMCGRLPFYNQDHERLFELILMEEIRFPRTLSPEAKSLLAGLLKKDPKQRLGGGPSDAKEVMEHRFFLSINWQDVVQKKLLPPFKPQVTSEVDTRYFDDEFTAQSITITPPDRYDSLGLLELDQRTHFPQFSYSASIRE
Description: AKT Kinase Assay (IMAP fluorescent polarisation) vs AKT2. The method, then:
as §1, §2, §3, §4, §5, §6, §7, §8, §9, §10

The target of test [3] is T3, AKT3 (Homo sapiens, UniProt Q9Y243).
T3 construct: purchased SignalChem
T3 sequence (Q9Y243 whole entry): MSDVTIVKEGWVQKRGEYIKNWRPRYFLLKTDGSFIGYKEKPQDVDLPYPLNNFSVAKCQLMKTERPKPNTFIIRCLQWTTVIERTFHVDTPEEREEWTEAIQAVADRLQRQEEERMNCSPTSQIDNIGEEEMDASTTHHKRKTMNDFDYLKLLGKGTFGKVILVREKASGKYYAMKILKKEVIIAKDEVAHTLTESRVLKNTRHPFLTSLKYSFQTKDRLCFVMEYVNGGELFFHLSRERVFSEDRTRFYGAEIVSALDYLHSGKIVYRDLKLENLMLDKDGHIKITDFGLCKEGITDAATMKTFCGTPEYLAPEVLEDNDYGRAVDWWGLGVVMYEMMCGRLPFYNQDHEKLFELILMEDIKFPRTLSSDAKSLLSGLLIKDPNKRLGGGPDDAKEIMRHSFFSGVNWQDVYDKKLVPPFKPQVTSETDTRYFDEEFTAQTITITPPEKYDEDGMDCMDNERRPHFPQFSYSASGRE
Description: AKT Kinase Assay (IMAP fluorescent polarisation) vs AKT3. As to the method: as §1, §2, §3, §4, §5, §6, §7, §8, §9, §10

A value given as a limit tells only on which side of the number the result lay.

T1 sequence (P31749 whole entry): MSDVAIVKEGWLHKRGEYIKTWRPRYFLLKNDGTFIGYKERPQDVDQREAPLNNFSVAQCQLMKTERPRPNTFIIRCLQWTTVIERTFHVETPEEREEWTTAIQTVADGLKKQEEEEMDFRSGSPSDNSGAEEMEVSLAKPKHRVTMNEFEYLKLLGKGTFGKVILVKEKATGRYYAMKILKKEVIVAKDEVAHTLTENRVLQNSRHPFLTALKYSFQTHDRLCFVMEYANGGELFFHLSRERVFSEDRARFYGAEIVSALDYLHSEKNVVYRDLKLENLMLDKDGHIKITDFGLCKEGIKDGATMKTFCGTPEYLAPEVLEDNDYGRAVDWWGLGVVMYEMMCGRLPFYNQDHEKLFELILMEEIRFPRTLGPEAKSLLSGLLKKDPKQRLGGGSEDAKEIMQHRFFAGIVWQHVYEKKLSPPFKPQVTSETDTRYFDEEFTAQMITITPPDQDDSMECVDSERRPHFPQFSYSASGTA

With `NC1(c2ccc(-c3nc4c(cc3-c3ccccc3)N(CC(F)F)C(=O)CO4)cc2)CCC1` [Example 85, 6-(4-(1-aminocyclobutyl)phenyl)-1-(2,2-difluoroethyl)-7-phenyl-1H-pyrido[2,3-b][1,4]oxazin-2(3H)-one], the values for the IC50 in test [1], in test [2] and in test [3] were 0.1 to 1 µM, at most 0.1 µM and 0.1 to 1 µM, respectively.
Turning to `NC1(c2ccc(-c3nc4c(cc3-c3ccccc3)N(C3CCC3)C(=O)CO4)cc2)CCC1` [Example 61, 6-(4-(1-aminocyclobutyl)phenyl)-1-cyclobutyl-7-phenyl-1H-pyrido[2,3-b][1,4]oxazin-2(3H)-one], the 50% inhibitory concentration (IC50) (as a rule, the concentration that inhibits the measured activity by half) in test [1] lay within 1 to 10 µM; in test [2] it was 0.1 to 1 µM; in test [3], 1 to 10 µM.
In the case of `NC1(c2ccc(-c3nc4c(cc3-c3ccccc3)-n3c(nnc3-c3cccnc3)CO4)cc2)CCC1` [Example 122, 1-(4-(8-phenyl-1-(pyridin-3-yl)-4H-pyrido[2,3-b][1,2,4]triazolo[4,3-d][1,4]oxazin-7-yl)phenyl)cyclobutanamine], the IC50 in test [1] lay in the range of 0.1 to 1 µM; in test [2], 1 to 10 µM; in test [3] it was 1 to 10 µM.
Turning to `NC1(c2ccc(-c3nc4c(cc3-c3ccccc3)-n3c(nnc3C3CC3)CO4)cc2)CCC1` [Example 110, 1-(4-(1-cyclopropyl-8-phenyl-4H-pyrido[2,3-b][1,2,4]triazolo[4,3-d][1,4]oxazin-7-yl)phenyl)cyclobutanamine], the IC50 in test [1], in test [2] and in test [3] was 0.1 to 1 µM each time.
`CCc1nnc2n1-c1cc(-c3ccccc3)c(-c3ccc(CN)cc3)nc1OC2` [Example 142, (4-(1-ethyl-8-phenyl-4H-pyrido[2,3-b][1,2,4]triazolo[4,3-d][1,4]oxazin-7-yl)phenyl)methanamine]: the IC50 in test [1], in test [2] and in test [3] was 1 to 10 µM each time.
As to `C[C@]1(O)C[C@@](N)(c2ccc(-c3nc4c(cc3-c3ccccc3)N(CC#N)C(=O)CO4)cc2)C1` [Example 150, 2-(6-(4-((1r,3r)-1-amino-3-hydroxy-3-methylcyclobutyl)phenyl)-2-oxo-7-phenyl-2,3-dihydro-1H-pyrido[2,3-b][1,4]oxazin-1-yl)acetonitrile], the IC50 in test [1] was at most 0.1 µM; in test [2], at most 0.1 µM; in test [3], 1 to 10 µM.
Consider `NC1(c2ccc(-c3nc4c(cc3-c3ccccc3)-c3n[nH]c(=O)n3CC4)cc2)CCC1` [Example 26, 8-(4-(1-aminocyclobutyl)phenyl)-9-phenyl-5,6-dihydro-[1,2,4]triazolo[3,4][1,6]naphthyridin-3(2H)-one], for which the values for the IC50 in test [1], in test [2] and in test [3] were at most 0.1 µM, 1 to 10 µM and over 10 µM, respectively.
For the compound `NC1(c2ccc(-c3nc4c(cc3-c3ccccc3)-n3c(n[nH]c3=O)CO4)cc2)CCC1` [Example 38, 7-(4-(1-aminocyclobutyl)phenyl)-8-phenyl-2,4-dihydro-1H-pyrido[2,3-b][1,2,4]triazolo[4,3-d][1,4]oxazin-1-one], the IC50 in test [1] lay in the range of 0.1 to 1 µM; in test [2], 0.1 to 1 µM; in test [3], 1 to 10 µM.
Regarding `NC1(c2ccc(-c3nc4c(cc3-c3ccccc3)N(c3cccnc3)C(=O)CO4)cc2)CCC1` [Example 75, 6-(4-(1-aminocyclobutyl)phenyl)-7-phenyl-1-(pyridin-3-yl)-1H-pyrido[2,3-b][1,4]oxazin-2(3H)-one], the results for the IC50 in test [1], in test [2] and in test [3] were 1 to 10 µM, 1 to 10 µM and over 10 µM, respectively.
Turning to `CN1C(=O)COc2nc(-c3ccc(C4(N)CCC4)cc3)c(-c3ccsc3)cc21` [Example 125, 6-(4-(1-aminocyclobutyl)phenyl)-1-methyl-7-(thiophen-3-yl)-1H-pyrido[2,3-b][1,4]oxazin-2(3H)-one], the IC50 in test [1] fell in the range of 0.1 to 1 µM; in test [2], 1 to 10 µM; in test [3], 1 to 10 µM.
For the compound `CN1CCC(=O)N(C)c2cc(-c3ccccc3)c(-c3ccc(C4(N)CCC4)cc3)nc21` [Example 111, 7-(4-(1-aminocyclobutyl)phenyl)-1,5-dimethyl-8-phenyl-4,5-dihydro-1H-pyrido[2,3-b][1,4]diazepin-2(3H)-one], the IC50 in test [1] is 1 to 10 µM; in test [2] it was 1 to 10 µM; in test [3] it was over 10 µM.
As for `NC1(c2ccc(-c3nc4c(cc3-c3ccccc3)-n3c(nn(CC(F)(F)F)c3=O)CO4)cc2)CCC1` [Example 103, 7-(4-(1-aminocyclobutyl)phenyl)-8-phenyl-2-(2,2,2-trifluoroethyl)-2,4-dihydro-1H-pyrido[2,3-b][1,2,4]triazolo[4,3-d][1,4]oxazin-1-one], the half-inhibitory concentration (IC50) fell in the range of 1 to 10 µM in test [1], 0.1 to 1 µM in test [2] and 1 to 10 µM in test [3].
With `NCc1ccc(-c2nc3c(cc2-c2ccccc2)N(CC2CC2)C(=O)CO3)cc1` [Example 153, 6-(4-(Aminomethyl)phenyl)-1-(cyclopropylmethyl)-7-phenyl-1H-pyrido[2,3-b][1,4]oxazin-2(3H)-one], the IC50 was 1 to 10 µM in test [1], 1 to 10 µM in test [2] and over 10 µM in test [3].
Consider `COCC1Oc2nc(-c3ccc(C4(N)CCC4)cc3)c(-c3ccccc3)cc2N(C)C1=O` (stereo not drawn) [Example 96, 6-(4-(1-aminocyclobutyl)phenyl)-3-(methoxymethyl)-1-methyl-7-phenyl-1H-pyrido[2,3-b][1,4]oxazin-2(3H)-one], for which the concentration for half-maximal inhibition (IC50) is 0.1 to 1 µM in test [1], 1 to 10 µM in test [2] and over 10 µM in test [3].
For `C=CCN1C(=O)COc2nc(-c3ccc(C4(N)CCC4)cc3)c(-c3ccccc3)cc21` [Example 67, 1-allyl-6-(4-(1-aminocyclobutyl)phenyl)-7-phenyl-1H-pyrido[2,3-b][1,4]oxazin-2(3H)-one], in that order: 0.1 to 1 µM, at most 0.1 µM and 1 to 10 µM.
`CO/N=C1\COc2nc(-c3ccc(C4(N)CCC4)cc3)c(-c3ccccc3)cc2N1C` [Example 90, 6-(4-(1-Aminocyclobutyl)phenyl)-1-methyl-7-phenyl-1H-pyrido[2,3-b][1,4]oxazin-2(3H)-one O-methyl oxime]: the results for the IC50 in test [1], in test [2] and in test [3] were 1 to 10 µM, 0.1 to 1 µM and over 10 µM, respectively.
Consider `NC1(c2ccc(-c3nc4c(cc3-c3ccccc3)N(c3cccnc3)S(=O)(=O)CO4)cc2)CCC1` [Example 74, 6-(4-(1-aminocyclobutyl)phenyl)-7-phenyl-1-(pyridin-3-yl)-1H-pyrido[3,2-e][1,3,4]oxathiazine 2,2-dioxide], for which the IC50 in test [1] is 1 to 10 µM; in test [2] it was 1 to 10 µM; in test [3], over 10 µM.
For `CN1C(=O)C(CCO)Oc2nc(-c3ccc(C4(N)CCC4)cc3)c(-c3ccccc3)cc21` (stereo not drawn) [Example 77, 6-(4-(1-aminocyclobutyl)phenyl)-3-(2-hydroxyethyl)-1-methyl-7-phenyl-1H-pyrido[2,3-b][1,4]oxazin-2(3H)-one], the IC50 in test [1] was 0.1 to 1 µM; in test [2], 1 to 10 µM; in test [3], over 10 µM.
The matching figures for `N#CCN1C(=O)COc2nc(-c3ccc([C@]4(N)C[C@@H](O)C4)cc3)c(-c3ccccc3)cc21` [Example 147, 2-(6-(4-((1s,3s)-1-amino-3-hydroxycyclobutyl)phenyl)-2-oxo-7-phenyl-2,3-dihydro-1H-pyrido[2,3-b][1,4]oxazin-1-yl)acetonitrile]: 0.1 to 1 µM, 0.1 to 1 µM and over 10 µM.
As for `C[C@]1(O)C[C@@](N)(c2ccc(-c3nc4c(cc3-c3ccccc3)-n3c(nnc3C(F)F)CO4)cc2)C1` [Example 128, (1r,3r)-3-amino-3-(4-(1-(difluoromethyl)-8-phenyl-4H-pyrido[2,3-b][1,2,4]triazolo[4,3-d][1,4]oxazin-7-0)phenyl)-1-methylcyclobutanol], the IC50 in test [1] is at most 0.1 µM; in test [2] it was 0.1 to 1 µM; in test [3], 0.1 to 1 µM.
Regarding `CCCc1nnc2n1-c1cc(-c3ccccc3)c(-c3ccc(C4(N)CCC4)cc3)nc1OC2` [Example 69, 1-(4-(8-phenyl-1-propyl-4H-pyrido[2,3-b][1,2,4]triazolo[4,3-d][1,4]oxazin-7-yl)phenyl)cyclobutanamine], the IC50 is at most 0.1 µM in test [1], 0.1 to 1 µM in test [2] and 1 to 10 µM in test [3].
